In patent publication US5843916A, “Cyclic amp analogues, individually and in pairs, to inhibit neoplastic cell growth” (priority 1994, dated 1998):
Like-named read-outs stand apart in the source and are kept apart here.

Tests used:
[1] = system: LoVo colon tumors; assay: Subcutaneous infusion in tumor-bearing mice; type: in vivo, human xenograft in athymic NCR-NU mice; conditions: sc infusion approximately 42 mg/kg/day (1 mg/mouse), seven days
[2] = system: BDF1 mice; assay: Toxicity in non-tumor BDF1 mice (Table 6); type: in vivo, mouse; conditions: for Toxic deaths, No. killed/No. treated: qd, day 1
Experimental: (§1) Influence of 8-Cl-cAMP-Na^+ on the life span of
(§2) non-tumor BDF1 mice when delivered i.p. by bolus injection
(§3) When delivered qd, day 1 to nontumor BDF1 mice, the 480 and 288 mg/k

[3] = Toxicity in non-tumor BDF1 mice (Table 6); type: in vivo, mouse; conditions: mouse, in vivo; for mortality: qd, day 1, read-out: Toxic deaths, No. killed/No. treated
Experimental: as §1, §2, §3

[4] = system: L1210 leukemia; assay: Life span of L1210-inoculated BDF1 mice (Table 7)
[5] = system: LX-1-Lung carcinoma; assay: Growth of human lung tumor xenograft, ip infusion (Table 9); type: in vivo, human xenograft in athymic CD-1 mice; conditions: 7 days
Experimental: (§4) Based on the findings with the […] leukemia model, the efficacy of the 8-Cl-cAMP-Na+infusions were evaluated in advanced-stage human tumor xenograft models. Tumor fragments of approximately 14 mg were implanted subcutaneously in athymic CD-1 female mice and seven day intraperitoneal infusions of the cyclic nucleotide were initiated three weeks later when mean tumor weights had reached 300-400 mg. Tumor measurements were recorded on the initial day of treatment (staging day) and one day after treatment was completed (staging day +7), and were used to calculate changes in tumor weights.
(§5) *Mean tumor weight per group on staging day.
(§6) $Mean tumor weight per group on staging day +7.
(§7) **Change in test tumor wt (finalinitial)/initial test tumor treatment.
(§8) Denoted by negative value.
(§9) $$Change in test tumor wt/change in control tumor wt. Used where test
(§10) tumor size increased during treatment. Denoted by positive value.

[6] = system: two mammary, one lung, and one colon tumor; assay: Advanced-stage human tumor xenografts, ip infusion; type: in vivo, human xenograft in athymic CD-1 mice; conditions: seven day ip infusion
Experimental: as §4

[7] = system: MDA-MB-231 mammary carcinoma; assay: Growth of human mammary tumor xenograft, ip infusion (Table 8); type: in vivo, human xenograft in athymic CD-1 mice; conditions: 7 days; for % Δ T/T or % Δ T/ΔC: positive = ΔT/ΔC
Experimental: as §4, §5, §6, §7, §8, §9, §10

[8] = system: MX-1 mammary carcinoma; assay: as above; type: in vivo, human xenograft in athymic CD-1 mice; conditions: 7 days; for % Δ T/T or % Δ T/ΔC: negative = ΔT/T
Experimental: as §4, §5, §6, §7, §8, §9, §10

[9] = system: LOVO Colon carcinoma; assay: Growth of human colon tumor xenograft, ip infusion (Table 9); type: in vivo, human xenograft in athymic CD-1 mice; conditions: 7 days
Experimental: as §4, §5, §6, §7, §8, §9, §10

Nc1ncnc2c1nc(Cl)n2[C@@H]1O[C@@H]2COP(=O)(O)O[C@H]2[C@H]1O [8-Cl-cAMP-Na^+]
toxicity [1]: appeared to be toxic
Toxic deaths, No. killed/No. treated ([2]; 173 mg/kg ip bolus): 2/5
Toxic deaths, No. killed/No. treated ([2]; 173 mg/kg ip bolus, listed as 8Cl-cAMP-Na^+): killed 2 of 5 mice
Toxic deaths, No. killed/No. treated ([2]; 288 mg/kg ip bolus): 5/5
Toxic deaths, No. killed/No. treated ([2]; 288 mg/kg ip bolus, listed as 8Cl-cAMP-Na^+): lethally toxic for all treated mice
Toxic deaths, No. killed/No. treated ([2]; 480 mg/kg ip bolus): 5/5
Toxic deaths, No. killed/No. treated ([2]; 480 mg/kg ip bolus, listed as 8Cl-cAMP-Na^+): lethally toxic for all treated mice
LD10 ([2]; Single ip dose): 122 mg/kg
mortality ([3]; 22 mg/kg ip bolus): 0%
mortality ([3]; 37 mg/kg ip bolus): 0%
mortality ([3]; 62 mg/kg ip bolus): 0%
mortality ([3]; 104 mg/kg ip bolus): 0%
LD50 ([3]; Single ip dose): 195 mg/kg
Postinoculation lifespan (T/C) ([4]; 0.6 mg/kg/day ip, 24-hr infusion, day 1-5): 100
Postinoculation lifespan (T/C) ([4]; 1.7 mg/kg/day ip, 24-hr infusion, day 1-5): 100
Postinoculation lifespan (T/C) ([4]; 4.8 mg/kg/day ip, 24-hr infusion, day 1-5): 100
Postinoculation lifespan (T/C) ([4]; 13 mg/kg/day ip, 24-hr infusion, day 1-5): 113
Postinoculation lifespan (T/C) ([4]; 22 mg/kg/day ip, 24-hr infusion, day 1-5): 126
Postinoculation lifespan (T/C) ([4]; 22 mg/kg/day ip, qd, day 1-7): 103
Postinoculation lifespan (T/C) ([4]; 37 mg/kg/day ip, 24-hr infusion, day 1-5): 126
Postinoculation lifespan (T/C) ([4]; 37 mg/kg/day ip, qd, day 1-7): 93
Postinoculation lifespan (T/C) ([4]; 62 mg/kg/day ip, 24-hr infusion, day 1-5): 137
Postinoculation lifespan (T/C) ([4]; 62 mg/kg/day ip, qd, day 1-7): 103
Postinoculation lifespan (T/C) ([4]; 104 mg/kg/day ip, 24-hr infusion, day 1-5): 137
Postinoculation lifespan (T/C) ([4]; 104 mg/kg/day ip, qd, day 1-7): 98
Postinoculation lifespan (T/C) ([4]; 173 mg/kg/day ip, 24-hr infusion, day 1-5): 131
toxicity ([4]; 288 mg/kg/day ip infusion): toxic
toxicity ([4]; 288 mg/kg/day ip infusion, listed as 8Cl-cAMP-Na^+): killed 2 to 5 mice
Postinoculation lifespan (T/C) ([4]; 288 mg/kg/day ip, 24-hr infusion, day 1-5, toxic): 128
toxicity ([4]; 480 mg/kg/day ip infusion): toxic
toxicity ([4]; 480 mg/kg/day ip infusion, listed as 8Cl-cAMP-Na^+): lethally toxic for all treated mice
Postinoculation lifespan (T/C) ([4]; 480 mg/kg/day ip, 24-hr infusion, day 1-5, toxic): 93
toxicity ([4]; 800 mg/kg/day ip infusion): toxic
toxicity ([4]; 800 mg/kg/day ip infusion, listed as 8Cl-cAMP-Na^+): lethally toxic for all treated mice
Postinoculation lifespan (T/C) ([4]; 800 mg/kg/day ip, 24-hr infusion, day 1-5, toxic): 62
Final Mean Tumor Wt ([5]; 37 mg/kg/day, initial 330 mg): 341 mg
% Δ T/T or % Δ T/ΔC ([5]; 37 mg/kg/day, positive = ΔT/ΔC): +06%
Final Mean Tumor Wt ([5]; 62 mg/kg/day, initial 327 mg): 277 mg
% Δ T/T or % Δ T/ΔC ([5]; 62 mg/kg/day, negative = ΔT/T): -15%
Final Mean Tumor Wt ([5]; 104 mg/kg/day, initial 324 mg): 270 mg
% Δ T/T or % Δ T/ΔC ([5]; 104 mg/kg/day, negative = ΔT/T): -17%
tumor growth during treatment [6]: caused tumor stasis during treatment
Final Mean Tumor Wt ([7]; 37 mg/kg/day, initial 367 mg): 516 mg
% Δ T/T or % Δ T/ΔC ([7]; 37 mg/kg/day): +41%
Final Mean Tumor Wt ([7]; 62 mg/kg/day, initial 375 mg): 471 mg
% Δ T/T or % Δ T/ΔC ([7]; 62 mg/kg/day): +26%
Final Mean Tumor Wt ([7]; 104 mg/kg/day, initial 367 mg): 433 mg
% Δ T/T or % Δ T/ΔC ([7]; 104 mg/kg/day): +18%
Final Mean Tumor Wt ([8]; 62 mg/kg/day, initial 337 mg): 288 mg
% Δ T/T or % Δ T/ΔC ([8]; 62 mg/kg/day): -15%
Final Mean Tumor Wt ([8]; 104 mg/kg/day, initial 346 mg): 323 mg
% Δ T/T or % Δ T/ΔC ([8]; 104 mg/kg/day): -07%
Final Mean Tumor Wt ([8]; 173 mg/kg/day, initial 375 mg): 336 mg
% Δ T/T or % Δ T/ΔC ([8]; 173 mg/kg/day): -10%
Final Mean Tumor Wt ([9]; 37 mg/kg/day, initial 288 mg): 284 mg
% Δ T/T or % Δ T/ΔC ([9]; 37 mg/kg/day, negative = ΔT/T): -01%
Final Mean Tumor Wt ([9]; 62 mg/kg/day, initial 293 mg): 290 mg
% Δ T/T or % Δ T/ΔC ([9]; 62 mg/kg/day, negative = ΔT/T): -01%
% Δ T/T or % Δ T/ΔC ([9]; 104 mg/kg/day): -35%
Final Mean Tumor Wt ([9]; 104 mg/kg/day, initial 288 mg): 317 mg
